In BindingDB's records for doi:10.1021/jm00011a006 (University of Minnesota, 1995):

Target: Aldehyde dehydrogenase (Saccharomyces cerevisiae)
Experiment: In vitro inhibition against yeast Aldehyde dehydrogenase

IC50 [µM]	Compound
56	CCOC(=O)ON1C(=O)c2ccccc2S1(=O)=O [Carbonic acid ethyl ester 1,1,3-trioxo-1,3-dihydro-1lambda*6*-benzo[d]isothiazol-2-yl ester]
270	CCOC(=O)On1nnc2ccccc21 [Carbonic acid benzotriazol-1-yl ester ethyl ester]
24	CCOC(=O)ON(C(=O)OCC)S(=O)(=O)c1ccc(Cl)cc1 [ethyl (4-chlorophenyl)sulfonyl[(ethoxycarbonyl)oxy]carbamate]
